The record followed here is PubChem BioAssay AID652137 (The Scripps Research Institute Molecular Screening Center, 2013).

In the assay the target is Hepatocyte nuclear factor 4-alpha (Homo sapiens) (UniProt P41235). Briefly: HNF4 dimerization inhibitors, late-stage follow-up, counter-screen for ABHD5-PLIN5 interaction inhibitor project, biochemical, luminescence, dose response, round 3 (AID 652137). The settings on record: luminescence biochemical assay. A general note: A counterscreen serves to expose hits that act by an unwanted route or on another target.
Hepatocyte nuclear factor 4-alpha (Homo sapiens), sequence (P41235 whole entry, looked up): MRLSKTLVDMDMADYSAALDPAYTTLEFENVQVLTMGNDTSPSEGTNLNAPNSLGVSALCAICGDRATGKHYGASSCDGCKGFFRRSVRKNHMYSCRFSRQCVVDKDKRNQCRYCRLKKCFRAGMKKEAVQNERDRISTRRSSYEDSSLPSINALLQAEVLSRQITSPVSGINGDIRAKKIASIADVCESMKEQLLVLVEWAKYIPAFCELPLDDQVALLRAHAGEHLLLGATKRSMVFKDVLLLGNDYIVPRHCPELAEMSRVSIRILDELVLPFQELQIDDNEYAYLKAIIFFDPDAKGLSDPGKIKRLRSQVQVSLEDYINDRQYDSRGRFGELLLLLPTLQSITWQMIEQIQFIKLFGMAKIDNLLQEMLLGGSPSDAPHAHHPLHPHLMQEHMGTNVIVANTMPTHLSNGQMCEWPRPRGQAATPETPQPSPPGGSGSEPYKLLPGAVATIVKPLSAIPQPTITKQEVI

The source made the active and inactive calls. No rule for the calls is given here.

The term IC50 denotes the concentration that inhibits the measured activity by half. With `CCCCNC(=O)Nc1ccc2c(c1)N(C)C(=O)c1ccccc1S2`, the IC50 was > 39.8 µM (inactive). Under `CCCCCNC(=O)Nc1ccc2c(c1)N(C)C(=O)c1ccccc1S2` stands > 39.8 µM (inactive); under `CN1C(=O)c2ccccc2Sc2ccc(NC(=O)NCCCc3ccccc3)cc21`, > 39.8 µM (inactive). Take `CCCCCCCNC(=O)Nc1ccc2c(c1)N(C)C(=O)c1ccccc1S2`: the IC50 was > 39.8 µM (inactive). The value for `CCCCCCNC(=O)Nc1ccc2c(c1)N(C)C(=O)c1ccccc1S2` was > 39.8 µM (inactive).
